Reference: patent US20240384250A1, “FIBROBLAST GROWTH FACTOR 23 MODULATING COMPOUNDS” (THE UAB RESEARCH FOUNDATION, priority 2021, published 2024)

System: male BALB/c mice
Assay: Serial FGF23 and heparin injections in mice, echocardiography and heart weight
Assay type: in vivo, mouse
Settings: heparin 125 USP/kg and/or FGF23 40 μg/kg
Protocol: FGF23 injections were administered following a similar protocol established previously. 13,72,73 Briefly, 12-week-old male BALB/c mice (The Jackson Laboratory) underwent tail vein injections. The day before the experiment, mice underwent echocardiographic analysis, as described below. Mice were anesthetized in 2.5% isoflurane and placed on a heat pad. Each group consisted of 5 mice, and different groups were injected with isotonic saline, heparin, FGF23, or FGF23 and heparin combined. Per injection, 40 μg/kg of FGF23 and 125, 62.5, or 12.5 USP/kg of heparin dissolved in 200 μl of isotonic saline were used, with 8 hours were used between injections for a total of 5 consecutive days. All injections were performed via the lateral tail vein. On the morning of the sixth day, 16 hours after the final tail vein injection, animals underwent echocardiographic analysis and were killed. Middle sections of hearts were cut along the short axis and stored overnight in 4% phosphate-buffered formaldehyde solution. Sections were sent to IDEXX Laboratories for embedding, hematoxylin and eosin (H&E) staining, and sectioning. Sections for wheat germ agglutinin (WGA) labeling were not stained by IDEXX Laboratories.
Echocardiographic analysis was performed on day 6 of the experiment for FGF23-injected mice by using the Vevo 770 or Vevo 3100 imaging system (FUJIFILM VisualSonics). Animals were anesthetized with 1.5% isoflurane, and normal body temperature was maintained using a rectal probe for temperature monitoring. For analysis, both B- and M-mode images were obtained in the short- and long-axis views. Correct positioning of the transducer was ensured using B-mode imaging in the long-axis view before switching to the short-axis view. Image analysis was performed using Vevo 770 Workstation and Vevo LAB software (FUJIFILM VisualSonics).

Substance: heparin [reference compound]
- Endocardial % EF: 56.51 ± 4.08%
- Endocardial % FAC: 47.34 ± 2.41%
- Endocardial Area; s: 5.47 ± 0.44 mm²
- Endocardial major; d: 7.23 ± 0.11 mm
- Epicardial Area: s: 18.2 ± 0.63 mm²
- Epicardial Area; d: 22.5 ± 0.78 mm²
- Heart rate: 448.40 ± 4.52 BPM
- LV Mass; d: 111.90 ± 5.23 mg
- T; d: 0.88 ± 0.03 mm
